From article PMC7350133 (Heliyon, 2020)
Read-outs that look alike come from different tables or passages of the source. Values belong to the molecule of their own block, whether it stands above or below them.

Assays:
[1] = system: yeast alpha glucosidase enzyme; conditions: ref Gong et al., 2017, Peng et al., 2016, Rouzbehan et al.; cited from earlier work
[2] = DPPH free radical scavenging assay; conditions: mean ± SD (n = 3)
[3] = ABTS free radical scavenging assay; conditions: mean ± SD (n = 3)
[4] = biological target: alpha glucosidase; conditions: cited from earlier work

SMILES: C[C@H]1O[C@H](O[C@H]2[C@H](O)[C@@H](O)[C@@H](O[C@H]3[C@H](O)[C@@H](O)C(O)O[C@@H]3CO)O[C@@H]2CO)[C@H](O)[C@@H](O)[C@@H]1N[C@H]1C=C(CO)[C@@H](O)[C@H](O)[C@H]1O (stereo partly shown) [Acarbose, acarbose]
type of inhibition [1]: competitive

Antioxidant activity (IC50 in μg/mL) DPPH Assay [2]: 5.1 ± 0.1 µg/mL
Antioxidant activity (IC50 in μg/mL) ABTS Assay [3]: 3.9 ± 0.2 µg/mL
SMILES: O=C1O[C@H]([C@@H](O)CO)C(O)=C1O [Ascorbic acid]

SMILES: COc1ccc([C@@H]2CC(=O)c3c(O)cc(O)cc3O2)cc1O [hesperetin]
type of inhibition [1]: mixed type

SMILES: O=c1c(O)c(-c2ccc(O)cc2)oc2cc(O)cc(O)c12 [kaempferol]
type of inhibition [1]: mixed type

SMILES: O=c1c2cc(O)c(O)cc2oc2cc(O)cc(O)c12 [norathyriol]
AGI IC50 ([4]; ref Gu et al., 2019): 4.22 ± 0.19 µg/mL

SMILES: C/C=C(\C)CC/C=C(\C)C(=O)OCC(C)(C)CC1=C(O)C(=O)c2ccccc2C1=O [rhinacanthin C]
AGI IC50 ([4]; ref Shah et al., 2017): 22.6 ± 0.6 µg/mL
